Patent publication US20180298405A1, “METHODS AND COMPOSITIONS TO INCREASE HUMAN SOMATIC CELL NUCLEAR TRANSFER (SCNT) EFFICIENCY BY REMOVING HISTONE H3-LYSINE TRIMETHYLATION, AND DERIVATION OF HUMAN NT-ESC” (CHILDREN'S MEDICAL CENTER CORPORATION, priority 2015, published 2018)

Test system: reprogramming resistant regions (RRRs) / ZGA genes
Assay: RNA-seq of late 8-cell human SCNT embryos with or without KDM4A mRNA injection (ZGA of RRRs, KDM4A-responsive genes)
Format: cell-based
Settings: 8-cell embryos
Excerpt: A sliding window (size 20 kb, step size 10 kb) was used to assess the genome-wide expression level of 4-cell and 8-cell human embryos. For each window, the expression level was quantified with normalized RPM (reads per millions of uniquely mapped reads). […] These activated regions were classed into three groups based on their expression differences in human SCNT and IVF 8-cell embryos.
The SCNT embryos used for ZGA analysis were generated using oocytes donated by a single healthy person (#64) and dermal fibroblast cells from an AMD patient (DFB-8). SCNT and IVF embryos were cultured up to late 8-cell stage, when the compaction of blastomeres is initiated, then they were treated briefly with acid Tyrode solution to remove zona pellucida. To prepare for the 8-cell SCNT embryo, oocytes from a single oocyte donor, and skin fibroblast cells from a single somatic nuclear donor were used. All the procedures are the same as described in the “Human SCNT procedure and KMD4A mRNA injection” section. Only embryos that reached the late 8-cell stage synchronically 74 hours post activation were collected and used for this experiment.
For preparation of the control IVF embryos, several donated early 8-cell stage IVF embryos were thawed and cultured for 5-7 hours to allow them to reach late 8-cell stage before being processed. After removal of the zona pellucida, the denuded embryos were washed 3 times in PBS, loaded into RNAse and DNAse free PCR tubes, spin downed, and snap frozen in liquid nitrogen. Then, they were kept at −80° C. until use. As controls, dermal fibroblast cells of somatic nuclear donors were also prepared. Those fibroblast cells were cultured in a 25 cm^2 flask in DMEM 10% FBS, and approximately 10,000 cells/donor were collected, snap frozen, and stored at −80° C. until use.
Five 8-cell embryos for each group were directly lysed and used for cDNA synthesis using SMART-Seq v4 Ultra Low Input RNA Kit (Clontech). For MEF donor, 10 ng total RNA was used for cDNA synthesis using SMART-Seq v4 Ultra Low Input RNA Kit. After amplification, the cDNA samples were fragmented using Covaris sonicator M220 to an average size of 150 bp (Covaris). Sequencing libraries were made with the fragmented DNA using NEBNext Ultra DNA Library Prep Kit for Illumina according to manufacturer's instruction (New England Biolabs) with different barcodes. For each RNA-seq analysis of hESCs, 1 μg total RNA was used for mRNA purification. Barcoded RNA-seq libraries were generated using NEBNext Ultra Directional RNA Library Prep Kit for Illumina (New England Biolabs). Single end 50 bp sequencing was performed on a HiSeq 2500 sequencer (Illumina). Sequencing reads were mapped to the human genome (hg19) with Tophat2. All programs were performed with default settings (unless otherwise specified). At least 22 million uniquely mapped reads were obtained for each sequencing library, and subsequently assembled into transcripts guided by the reference annotation (Refseq gene models) with Cufflinks v2.0.2. Expression level of each gene was quantified with normalized FPKM (fragments per kilobase of exon per million mapped fragments). Statistical analyses were performed with R (available at: “www.r-project.org/”). Independent 2 group Wilcoxon rank sum tests were used to compare distributions using the wilcox.test function in R. Pearson's r coefficient was calculated using the cor function with default parameters. The hierarchical clustering analysis of the global gene expression pattern in different samples was carried out using heatmap.2 function (gplots package) in R.

KDM4A mRNA: in vitro transcribed mRNA of full length human KDM4A/JHDM3A cDNA, an H3K9me3 demethylase (SEQ ID NO: 1)
NDUFAF2 Fold Change (log2) [KDM4A SCNT/Control SCNT]: 1.16 log2 | NMNAT1 Fold Change (log2) [KDM4A SCNT/Control SCNT]: 1.28 log2 | NOC4L Fold Change (log2) [KDM4A SCNT/Control SCNT]: 1.15 log2 | NOP58 Fold Change (log2) [KDM4A SCNT/Control SCNT]: 1.4 log2 | NUDT9 Fold Change (log2) [KDM4A SCNT/Control SCNT]: 1.82 log2 | PAGE5 Fold Change (log2) [KDM4A SCNT/Control SCNT]: 1.24 log2 | PDCD11 Fold Change (log2) [KDM4A SCNT/Control SCNT]: 1.11 log2 | PDE4DIP Fold Change (log2) [KDM4A SCNT/Control SCNT]: 1.79 log2 | PHOSPHO1 Fold Change (log2) [KDM4A SCNT/Control SCNT]: 1.46 log2 | PIK3R4 Fold Change (log2) [KDM4A SCNT/Control SCNT]: 1.58 log2 | PLBD1 Fold Change (log2) [KDM4A SCNT/Control SCNT]: 1.69 log2 | PLD2 Fold Change (log2) [KDM4A SCNT/Control SCNT]: 1.2 log2 | PLVAP Fold Change (log2) [KDM4A SCNT/Control SCNT]: 1.63 log2 | POLR3K Fold Change (log2) [KDM4A SCNT/Control SCNT]: 1.34 log2 | POTEM Fold Change (log2) [KDM4A SCNT/Control SCNT]: 1.56 log2 | PPM1N Fold Change (log2) [KDM4A SCNT/Control SCNT]: 1.68 log2 | PPP2CB Fold Change (log2) [KDM4A SCNT/Control SCNT]: 2.17 log2 | PRAMEF3 Fold Change (log2) [KDM4A SCNT/Control SCNT]: 2.4 log2 | PRAMEF4 Fold Change (log2) [KDM4A SCNT/Control SCNT]: 1.02 log2 | PRAMEF6 Fold Change (log2) [KDM4A SCNT/Control SCNT]: 1.08 log2 | PRAMEF10 Fold Change (log2) [KDM4A SCNT/Control SCNT]: 1.05 log2 | PRAMEF11 Fold Change (log2) [KDM4A SCNT/Control SCNT]: 1.31 log2 | PRAMEF17 Fold Change (log2) [KDM4A SCNT/Control SCNT]: 1.44 log2 | PRPF39 Fold Change (log2) [KDM4A SCNT/Control SCNT]: 1.4 log2 | PTPN22 Fold Change (log2) [KDM4A SCNT/Control SCNT]: 2.57 log2 | RAB9A Fold Change (log2) [KDM4A SCNT/Control SCNT]: 1.39 log2 | RASA2 Fold Change (log2) [KDM4A SCNT/Control SCNT]: 1.36 log2 | RFK Fold Change (log2) [KDM4A SCNT/Control SCNT]: 1.29 log2 | RNU11 Fold Change (log2) [KDM4A SCNT/Control SCNT]: 5.27 log2 | RP2 Fold Change (log2) [KDM4A SCNT/Control SCNT]: 1.82 log2 | RPF2 Fold Change (log2) [KDM4A SCNT/Control SCNT]: 1.46 log2 | RPS6KB2 Fold Change (log2) [KDM4A SCNT/Control SCNT]: 1.81 log2 | SAMD8 Fold Change (log2) [KDM4A SCNT/Control SCNT]: 1.14 log2 | SCO1 Fold Change (log2) [KDM4A SCNT/Control SCNT]: 1.15 log2 | SEPX1 Fold Change (log2) [KDM4A SCNT/Control SCNT]: 1.36 log2 | SERTAD1 Fold Change (log2) [KDM4A SCNT/Control SCNT]: 1.12 log2 | SFTPD Fold Change (log2) [KDM4A SCNT/Control SCNT]: 2.45 log2 | SGCG Fold Change (log2) [KDM4A SCNT/Control SCNT]: 2.73 log2 | SGPP1 Fold Change (log2) [KDM4A SCNT/Control SCNT]: 1.41 log2 | SHFM1 Fold Change (log2) [KDM4A SCNT/Control SCNT]: 1.73 log2 | SIAH1 Fold Change (log2) [KDM4A SCNT/Control SCNT]: 1.7 log2 | SNAPC1 Fold Change (log2) [KDM4A SCNT/Control SCNT]: 1.71 log2 | SNAR-C3 Fold Change (log2) [KDM4A SCNT/Control SCNT]: 1.85 log2 | SNAR-E Fold Change (log2) [KDM4A SCNT/Control SCNT]: 1.72 log2 | SNHG9 Fold Change (log2) [KDM4A SCNT/Control SCNT]: 1.3 log2 | SNHG12 Fold Change (log2) [KDM4A SCNT/Control SCNT]: 1.42 log2 | SPINK7 Fold Change (log2) [KDM4A SCNT/Control SCNT]: 5.38 log2 | SRA1 Fold Change (log2) [KDM4A SCNT/Control SCNT]: 1.23 log2 | SSX3 Fold Change (log2) [KDM4A SCNT/Control SCNT]: 1.1 log2 | STAG3L2 Fold Change (log2) [KDM4A SCNT/Control SCNT]: 1.35 log2 | STAG3L4 Fold Change (log2) [KDM4A SCNT/Control SCNT]: 1.17 log2 | STAP2 Fold Change (log2) [KDM4A SCNT/Control SCNT]: 1.25 log2 | SUZ12P Fold Change (log2) [KDM4A SCNT/Control SCNT]: 1.68 log2 | TAC1 Fold Change (log2) [KDM4A SCNT/Control SCNT]: 1.38 log2 | TCEANC2 Fold Change (log2) [KDM4A SCNT/Control SCNT]: 1.13 log2 | TCN2 Fold Change (log2) [KDM4A SCNT/Control SCNT]: 1.4 log2 | TEN1 Fold Change (log2) [KDM4A SCNT/Control SCNT]: 1.66 log2 | THOC5 Fold Change (log2) [KDM4A SCNT/Control SCNT]: 1.46 log2 | TIMM10 Fold Change (log2) [KDM4A SCNT/Control SCNT]: 1.41 log2 | TMEM41B Fold Change (log2) [KDM4A SCNT/Control SCNT]: 1.14 log2 | TMEM92 Fold Change (log2) [KDM4A SCNT/Control SCNT]: 1.42 log2 | TMEM159 Fold Change (log2) [KDM4A SCNT/Control SCNT]: 1.17 log2 | TRIM39-RPP21 Fold Change (log2) [KDM4A SCNT/Control SCNT]: 1.09 log2 | TRIML2 Fold Change (log2) [KDM4A SCNT/Control SCNT]: 1.55 log2 | TSEN34 Fold Change (log2) [KDM4A SCNT/Control SCNT]: 1.28 log2 | TTC27 Fold Change (log2) [KDM4A SCNT/Control SCNT]: 1.72 log2 | TTC28-AS1 Fold Change (log2) [KDM4A SCNT/Control SCNT]: 1.74 log2 | UBTFL1 Fold Change (log2) [KDM4A SCNT/Control SCNT]: 1.8 log2 | UTP3 Fold Change (log2) [KDM4A SCNT/Control SCNT]: 1.08 log2 | UTP23 Fold Change (log2) [KDM4A SCNT/Control SCNT]: 1.35 log2 | UTS2 Fold Change (log2) [KDM4A SCNT/Control SCNT]: 1.28 log2 | VAMP1 Fold Change (log2) [KDM4A SCNT/Control SCNT]: 2.23 log2 | VCX2 Fold Change (log2) [KDM4A SCNT/Control SCNT]: 1.77 log2 | VCX Fold Change (log2) [KDM4A SCNT/Control SCNT]: 1.72 log2 | VPS54 Fold Change (log2) [KDM4A SCNT/Control SCNT]: 2.28 log2 | WDR77 Fold Change (log2) [KDM4A SCNT/Control SCNT]: 1.18 log2 | XAGE5 Fold Change (log2) [KDM4A SCNT/Control SCNT]: 1.07 log2 | ZCCHC10 Fold Change (log2) [KDM4A SCNT/Control SCNT]: 1.22 log2 | ZFYVE19 Fold Change (log2) [KDM4A SCNT/Control SCNT]: 1.49 log2 | ZNF92 Fold Change (log2) [KDM4A SCNT/Control SCNT]: 1.03 log2 | ZNF100 Fold Change (log2) [KDM4A SCNT/Control SCNT]: 2.53 log2 | ZNF174 Fold Change (log2) [KDM4A SCNT/Control SCNT]: 1.24 log2 | ZNF208 Fold Change (log2) [KDM4A SCNT/Control SCNT]: 1.57 log2 | ZNF254 Fold Change (log2) [KDM4A SCNT/Control SCNT]: 1.37 log2 | ZNF273 Fold Change (log2) [KDM4A SCNT/Control SCNT]: 1.11 log2 | ZNF280A Fold Change (log2) [KDM4A SCNT/Control SCNT]: 1.34 log2 | ZNF326 Fold Change (log2) [KDM4A SCNT/Control SCNT]: 1.37 log2 | ZNF345 Fold Change (log2) [KDM4A SCNT/Control SCNT]: 1.46 log2 | ZNF486 Fold Change (log2) [KDM4A SCNT/Control SCNT]: 1.74 log2 | ZNF487P Fold Change (log2) [KDM4A SCNT/Control SCNT]: 1.2 log2 | ZNF625-ZNF20 Fold Change (log2) [KDM4A SCNT/Control SCNT]: 2.32 log2 | ZNF625 Fold Change (log2) [KDM4A SCNT/Control SCNT]: 1.87 log2 | ZNF669 Fold Change (log2) [KDM4A SCNT/Control SCNT]: 1.08 log2 | ZNF675 Fold Change (log2) [KDM4A SCNT/Control SCNT]: 1.87 log2 | ZNF676 Fold Change (log2) [KDM4A SCNT/Control SCNT]: 1.29 log2 | ZNF679 Fold Change (log2) [KDM4A SCNT/Control SCNT]: 2.13 log2 | ZNF680 Fold Change (log2) [KDM4A SCNT/Control SCNT]: 1.18 log2 | ZNF684 Fold Change (log2) [KDM4A SCNT/Control SCNT]: 1.53 log2 | ZNF700 Fold Change (log2) [KDM4A SCNT/Control SCNT]: 1.49 log2 | ZNF724P Fold Change (log2) [KDM4A SCNT/Control SCNT]: 1.04 log2 | ZNF729 Fold Change (log2) [KDM4A SCNT/Control SCNT]: 1.75 log2 | ZNF735 Fold Change (log2) [KDM4A SCNT/Control SCNT]: 1.24 log2 | ZNF789 Fold Change (log2) [KDM4A SCNT/Control SCNT]: 1.28 log2 | ZNF791 Fold Change (log2) [KDM4A SCNT/Control SCNT]: 1.38 log2
